Literature values in patent publication US20050063990A1, “Compositons and methods for weight loss” (priority 2003, published 2005).

Legend:
[1] = animal studies (mice fed CLA)

In the case of conjugated linoleic acid [CLA], the “increase in use of fat as fuel (energy expenditure)” value [1] is listed as 74%, the abdominal fat (men classified as abdominally obese) is listed as “decrease abdominal fat” and the total fat mass (overweight and obese humans) is listed as “reduces total fat mass”.
